# Source: ChEMBL document CHEMBL1156950, “Synthesis and biological evaluation of 4-anilinoquinolines as potent inhibitors of epidermal growth factor receptor” (J Med Chem, 2010)
# Key:
# [1] = target: Serine/threonine-protein kinase pim-3 (Homo sapiens) (UniProt Q86V86); experiment: Inhibition of PIM3 at 10 uM assessed as residual activity by [33P]ATP radioactive filter binding assay relative to control
# [2] = target: Serine/threonine-protein kinase PAK 5 (Homo sapiens) (UniProt Q9P286); experiment: Inhibition of PAK5 at 10 uM assessed as residual activity by [33P]ATP radioactive filter binding assay relative to control
# [3] = target: Insulin-like growth factor 1 receptor (Homo sapiens) (UniProt P08069); experiment: Inhibition of IGF-1R at 10 uM assessed as residual activity by [33P]ATP radioactive filter binding assay relative to control
# [4] = target: Calcium/calmodulin-dependent protein kinase kinase 2 (Homo sapiens) (UniProt Q96RR4); experiment: Inhibition of CAMKKbeta at 10 uM assessed as residual activity by [33P]ATP radioactive filter binding assay relative to control
# [5] = target: SRSF protein kinase 1 (Homo sapiens) (UniProt Q96SB4); experiment: Inhibition of SRPK1 at 10 uM assessed as residual activity by [33P]ATP radioactive filter binding assay relative to control
# [6] = Inhibition of AMPK at 10 uM assessed as residual activity by [33P]ATP radioactive filter binding assay relative to control
# [7] = target: Mitogen-activated protein kinase kinase kinase 11 (Homo sapiens) (UniProt Q16584); experiment: Inhibition of MLK3 at 10 uM assessed as residual activity by [33P]ATP radioactive filter binding assay relative to control
# [8] = target: MAP kinase-activated protein kinase 5 (Homo sapiens) (UniProt Q8IW41); experiment: Inhibition of PRAK at 10 uM assessed as residual activity by [33P]ATP radioactive filter binding assay relative to control
# [9] = target: Insulin receptor (Homo sapiens) (UniProt P06213); experiment: Inhibition of His-IR at 10 uM assessed as residual activity by [33P]ATP radioactive filter binding assay relative to control
# [10] = target: Protein kinase C zeta type (Homo sapiens) (UniProt Q05513); experiment: Inhibition of PKCzeta at 10 uM assessed as residual activity by [33P]ATP radioactive filter binding assay relative to control
# [11] = target: Cyclin-dependent kinase 2/cyclin A (Homo sapiens) (UniProt P24941+P20248+P78396); experiment: Inhibition of CDK2/Cyclin A at 10 uM assessed as residual activity by [33P]ATP radioactive filter binding assay relative to control; assay type: protein-complex assay
# [12] = target: Rho-associated protein kinase 2 (Homo sapiens) (UniProt O75116); experiment: Inhibition of ROCK2 at 10 uM assessed as residual activity by [33P]ATP radioactive filter binding assay relative to control
# [13] = target: Glycogen synthase kinase-3 beta (Homo sapiens) (UniProt P49841); experiment: Inhibition of GSK3-beta at 10 uM assessed as residual activity by [33P]ATP radioactive filter binding assay relative to control
# [14] = Inhibition of CK2 at 10 uM assessed as residual activity by [33P]ATP radioactive filter binding assay relative to control
# [15] = target: Inhibitor of nuclear factor kappa-B kinase subunit epsilon (Homo sapiens) (UniProt Q14164); experiment: Inhibition of IKKepsilon at 10 uM assessed as residual activity by [33P]ATP radioactive filter binding assay relative to control
# [16] = target: Mitogen-activated protein kinase 12 (Homo sapiens) (UniProt P53778); experiment: Inhibition of p38-gamma at 10 uM assessed as residual activity by [33P]ATP radioactive filter binding assay relative to control
# [17] = target: Serine/threonine-protein kinase Nek2 (Homo sapiens) (UniProt P51955); experiment: Inhibition of NEK2a at 10 uM assessed as residual activity by [33P]ATP radioactive filter binding assay relative to control
# [18] = target: Ribosomal protein S6 kinase alpha-5 (Homo sapiens) (UniProt O75582); experiment: Inhibition of MSK1 at 10 uM assessed as residual activity by [33P]ATP radioactive filter binding assay relative to control
# [19] = target: Homeodomain-interacting protein kinase 3 (Homo sapiens) (UniProt Q9H422); experiment: Inhibition of HIPK3 at 10 uM assessed as residual activity by [33P]ATP radioactive filter binding assay relative to control
# [20] = target: Tyrosine-protein kinase Lck (Homo sapiens) (UniProt P06239); experiment: Inhibition of Lck at 10 uM assessed as residual activity by [33P]ATP radioactive filter binding assay relative to control
# [21] = target: Ephrin type-B receptor 3 (Homo sapiens) (UniProt P54753); experiment: Inhibition of EPH-B3 at 10 uM assessed as residual activity by [33P]ATP radioactive filter binding assay relative to control
# [22] = target: Receptor-interacting serine/threonine-protein kinase 2 (Homo sapiens) (UniProt O43353); experiment: Inhibition of RIPK2 at 10 uM assessed as residual activity by [33P]ATP radioactive filter binding assay relative to control
# [23] = target: Proto-oncogene tyrosine-protein kinase Src (Homo sapiens) (UniProt P12931); experiment: Inhibition of Src at 10 uM assessed as residual activity by [33P]ATP radioactive filter binding assay relative to control
# [24] = target: Maternal embryonic leucine zipper kinase (Homo sapiens) (UniProt Q14680); experiment: Inhibition of MELK at 10 uM assessed as residual activity by [33P]ATP radioactive filter binding assay relative to control
# [25] = Inhibition of PHK at 10 uM assessed as residual activity by [33P]ATP radioactive filter binding assay relative to control
# [26] = target: Ephrin type-A receptor 2 (Homo sapiens) (UniProt P29317); experiment: Inhibition of EPHA2 at 10 uM assessed as residual activity by [33P]ATP radioactive filter binding assay relative to control
# [27] = target: Dual specificity tyrosine-phosphorylation-regulated kinase 3 (Homo sapiens) (UniProt O43781); experiment: Inhibition of DYRK3 at 10 uM assessed as residual activity by [33P]ATP radioactive filter binding assay relative to control
# [28] = target: Serine/threonine-protein kinase N2 (Homo sapiens) (UniProt Q16513); experiment: Inhibition of PRK2 at 10 uM assessed as residual activity by [33P]ATP radioactive filter binding assay relative to control
# [29] = target: NUAK family SNF1-like kinase 1 (Homo sapiens) (UniProt O60285); experiment: Inhibition of NUAK1 at 10 uM assessed as residual activity by [33P]ATP radioactive filter binding assay relative to control
# [30] = target: Myosin light chain kinase, smooth muscle (Homo sapiens) (UniProt Q15746); experiment: Inhibition of SmMLCK at 10 uM assessed as residual activity by [33P]ATP radioactive filter binding assay relative to control
# [31] = target: Mitogen-activated protein kinase 9 (Homo sapiens) (UniProt P45984); experiment: Inhibition of JNK2 at 10 uM assessed as residual activity by [33P]ATP radioactive filter binding assay relative to control
# cells = details: Mus musculus, BaF3, 96 h
# Description: Growth inhibition of mouse BA/F3 cells expressing EGFR Del1 mutant after 96 hrs by cell titer-glo assay
# Myosin light chain kinase, smooth muscle (Homo sapiens), sequence (Q15746 whole entry): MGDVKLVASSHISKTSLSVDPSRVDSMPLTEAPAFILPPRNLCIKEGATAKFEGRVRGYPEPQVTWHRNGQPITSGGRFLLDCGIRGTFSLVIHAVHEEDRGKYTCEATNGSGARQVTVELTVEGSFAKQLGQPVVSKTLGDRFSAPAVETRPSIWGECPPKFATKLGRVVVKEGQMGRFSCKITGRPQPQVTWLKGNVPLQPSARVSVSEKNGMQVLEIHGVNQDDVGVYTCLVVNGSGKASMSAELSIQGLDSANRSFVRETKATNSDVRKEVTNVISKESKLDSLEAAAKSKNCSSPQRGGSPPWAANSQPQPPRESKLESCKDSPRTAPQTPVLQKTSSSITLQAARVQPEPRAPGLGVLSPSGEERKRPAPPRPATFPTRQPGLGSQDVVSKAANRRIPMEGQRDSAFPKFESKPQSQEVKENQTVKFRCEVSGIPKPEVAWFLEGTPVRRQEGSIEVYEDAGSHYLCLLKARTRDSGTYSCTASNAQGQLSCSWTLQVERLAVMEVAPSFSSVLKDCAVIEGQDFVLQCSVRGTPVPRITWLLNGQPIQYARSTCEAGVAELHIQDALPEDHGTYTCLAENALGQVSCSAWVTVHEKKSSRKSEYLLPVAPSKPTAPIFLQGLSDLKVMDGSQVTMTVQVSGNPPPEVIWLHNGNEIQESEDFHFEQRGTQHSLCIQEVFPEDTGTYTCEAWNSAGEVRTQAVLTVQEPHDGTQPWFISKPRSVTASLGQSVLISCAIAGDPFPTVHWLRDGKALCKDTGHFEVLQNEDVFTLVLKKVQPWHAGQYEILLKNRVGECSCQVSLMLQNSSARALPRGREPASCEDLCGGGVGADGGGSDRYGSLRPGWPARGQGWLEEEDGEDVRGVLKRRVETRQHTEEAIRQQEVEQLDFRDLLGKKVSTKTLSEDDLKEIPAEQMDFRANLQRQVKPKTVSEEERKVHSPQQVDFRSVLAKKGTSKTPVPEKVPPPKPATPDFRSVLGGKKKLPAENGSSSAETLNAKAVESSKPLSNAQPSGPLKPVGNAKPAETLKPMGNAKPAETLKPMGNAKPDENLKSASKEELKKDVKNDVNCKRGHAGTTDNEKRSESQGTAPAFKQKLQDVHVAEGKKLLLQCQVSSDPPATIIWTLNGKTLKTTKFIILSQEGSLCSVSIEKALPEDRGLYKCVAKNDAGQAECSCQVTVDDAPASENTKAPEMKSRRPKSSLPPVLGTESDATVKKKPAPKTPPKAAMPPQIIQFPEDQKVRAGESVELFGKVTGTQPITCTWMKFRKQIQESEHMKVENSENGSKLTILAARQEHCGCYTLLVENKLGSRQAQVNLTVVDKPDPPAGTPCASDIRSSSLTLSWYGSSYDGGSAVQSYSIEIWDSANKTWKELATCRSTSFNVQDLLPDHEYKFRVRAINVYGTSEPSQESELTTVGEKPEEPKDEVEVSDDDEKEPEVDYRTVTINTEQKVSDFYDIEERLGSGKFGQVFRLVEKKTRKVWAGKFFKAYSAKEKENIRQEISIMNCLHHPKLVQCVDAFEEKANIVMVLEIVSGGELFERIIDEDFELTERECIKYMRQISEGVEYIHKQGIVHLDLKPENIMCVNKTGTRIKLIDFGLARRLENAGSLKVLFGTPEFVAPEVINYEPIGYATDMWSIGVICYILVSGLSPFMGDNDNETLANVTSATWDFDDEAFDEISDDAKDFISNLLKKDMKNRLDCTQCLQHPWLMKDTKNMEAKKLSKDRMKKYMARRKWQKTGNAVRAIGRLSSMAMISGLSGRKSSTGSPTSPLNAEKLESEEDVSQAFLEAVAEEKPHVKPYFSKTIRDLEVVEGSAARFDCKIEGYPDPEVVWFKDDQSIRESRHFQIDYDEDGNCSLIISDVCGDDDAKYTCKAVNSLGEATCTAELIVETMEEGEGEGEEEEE
# Glycogen synthase kinase-3 beta (Homo sapiens), sequence (P49841 whole entry, looked up): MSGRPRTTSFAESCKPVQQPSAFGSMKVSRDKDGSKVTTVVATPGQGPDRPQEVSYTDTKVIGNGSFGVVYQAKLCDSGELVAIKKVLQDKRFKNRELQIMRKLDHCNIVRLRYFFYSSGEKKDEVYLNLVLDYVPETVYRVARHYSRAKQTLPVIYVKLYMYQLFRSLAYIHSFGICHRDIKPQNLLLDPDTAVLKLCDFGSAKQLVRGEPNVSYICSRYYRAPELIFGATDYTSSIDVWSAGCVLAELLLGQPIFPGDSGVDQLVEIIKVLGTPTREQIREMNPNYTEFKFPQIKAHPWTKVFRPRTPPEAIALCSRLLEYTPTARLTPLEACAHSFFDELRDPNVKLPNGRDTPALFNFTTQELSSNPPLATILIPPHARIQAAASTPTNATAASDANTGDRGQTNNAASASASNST
# Serine/threonine-protein kinase Nek2 (Homo sapiens), sequence (P51955 whole entry): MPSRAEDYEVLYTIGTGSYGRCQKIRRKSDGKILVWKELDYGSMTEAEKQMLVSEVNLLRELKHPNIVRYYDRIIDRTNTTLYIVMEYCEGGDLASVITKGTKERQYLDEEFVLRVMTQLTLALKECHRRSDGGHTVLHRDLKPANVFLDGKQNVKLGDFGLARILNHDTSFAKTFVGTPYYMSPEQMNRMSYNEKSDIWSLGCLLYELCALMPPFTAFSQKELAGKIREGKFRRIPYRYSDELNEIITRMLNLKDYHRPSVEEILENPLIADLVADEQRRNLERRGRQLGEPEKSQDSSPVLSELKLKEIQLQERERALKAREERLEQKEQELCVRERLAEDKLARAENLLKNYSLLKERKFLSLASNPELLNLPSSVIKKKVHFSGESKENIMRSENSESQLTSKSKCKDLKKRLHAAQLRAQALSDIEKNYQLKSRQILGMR
# Insulin-like growth factor 1 receptor (Homo sapiens), sequence (P08069 31-736 limits assumed): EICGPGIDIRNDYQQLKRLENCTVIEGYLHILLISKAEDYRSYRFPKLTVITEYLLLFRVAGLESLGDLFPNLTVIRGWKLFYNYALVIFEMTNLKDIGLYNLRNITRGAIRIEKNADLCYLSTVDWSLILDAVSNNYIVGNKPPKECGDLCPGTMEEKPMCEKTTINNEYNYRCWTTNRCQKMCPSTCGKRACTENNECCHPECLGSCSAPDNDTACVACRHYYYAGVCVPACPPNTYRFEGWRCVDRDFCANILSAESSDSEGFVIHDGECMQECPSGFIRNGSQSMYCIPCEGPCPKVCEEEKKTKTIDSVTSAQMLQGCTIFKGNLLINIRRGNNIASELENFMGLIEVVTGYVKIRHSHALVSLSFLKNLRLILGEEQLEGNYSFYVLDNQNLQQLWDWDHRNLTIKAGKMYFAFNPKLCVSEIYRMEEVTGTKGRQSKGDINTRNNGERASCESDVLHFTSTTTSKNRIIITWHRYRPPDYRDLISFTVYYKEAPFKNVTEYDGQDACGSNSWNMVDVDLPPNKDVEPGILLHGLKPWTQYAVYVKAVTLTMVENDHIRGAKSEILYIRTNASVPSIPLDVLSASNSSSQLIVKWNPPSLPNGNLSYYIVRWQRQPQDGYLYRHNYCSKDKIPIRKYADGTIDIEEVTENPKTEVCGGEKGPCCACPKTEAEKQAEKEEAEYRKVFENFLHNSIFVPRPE
# Insulin-like growth factor 1 receptor (Homo sapiens), sequence (P08069 741-1367 limits assumed): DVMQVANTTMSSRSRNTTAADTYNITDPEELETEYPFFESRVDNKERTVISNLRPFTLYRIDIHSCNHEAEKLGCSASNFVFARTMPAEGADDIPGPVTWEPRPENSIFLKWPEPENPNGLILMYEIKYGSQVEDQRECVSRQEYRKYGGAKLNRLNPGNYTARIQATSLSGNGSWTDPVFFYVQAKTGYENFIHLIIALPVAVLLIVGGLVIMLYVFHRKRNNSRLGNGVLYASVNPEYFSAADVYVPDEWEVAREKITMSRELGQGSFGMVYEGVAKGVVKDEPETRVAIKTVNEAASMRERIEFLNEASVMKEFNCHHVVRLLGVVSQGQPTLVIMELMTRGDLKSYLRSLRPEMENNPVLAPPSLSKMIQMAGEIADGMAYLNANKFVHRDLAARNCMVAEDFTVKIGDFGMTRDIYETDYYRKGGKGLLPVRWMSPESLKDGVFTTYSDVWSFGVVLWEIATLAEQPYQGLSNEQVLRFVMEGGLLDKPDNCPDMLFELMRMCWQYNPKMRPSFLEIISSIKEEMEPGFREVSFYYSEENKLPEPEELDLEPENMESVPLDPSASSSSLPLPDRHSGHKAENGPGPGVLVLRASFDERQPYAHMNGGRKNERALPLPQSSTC
# Calcium/calmodulin-dependent protein kinase kinase 2 (Homo sapiens), sequence (Q96RR4 2-588 limits assumed): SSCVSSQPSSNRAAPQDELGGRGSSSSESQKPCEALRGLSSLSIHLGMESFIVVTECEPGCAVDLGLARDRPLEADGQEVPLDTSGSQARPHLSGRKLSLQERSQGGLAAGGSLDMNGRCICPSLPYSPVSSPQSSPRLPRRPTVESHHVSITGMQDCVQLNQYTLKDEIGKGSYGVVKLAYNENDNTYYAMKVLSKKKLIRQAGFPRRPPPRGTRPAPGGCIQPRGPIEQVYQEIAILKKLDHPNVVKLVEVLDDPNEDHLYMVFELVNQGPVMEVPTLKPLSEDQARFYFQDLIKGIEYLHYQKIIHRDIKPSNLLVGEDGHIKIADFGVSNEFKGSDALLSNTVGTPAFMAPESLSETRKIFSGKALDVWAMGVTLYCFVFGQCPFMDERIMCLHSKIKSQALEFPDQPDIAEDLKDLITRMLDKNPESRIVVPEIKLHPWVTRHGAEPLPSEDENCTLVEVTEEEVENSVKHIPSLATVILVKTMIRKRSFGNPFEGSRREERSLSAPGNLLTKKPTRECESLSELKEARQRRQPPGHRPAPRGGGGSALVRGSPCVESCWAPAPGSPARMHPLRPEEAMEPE
Activity [1] [%],Activity [2] [%],Activity [3] [%],Activity [4] [%],Activity [5] [%],Activity [6] [%],Activity [7] [%],Activity [8] [%],Activity [9] [%],Activity [10] [%],Activity [11] [%],Activity [12] [%],Activity [13] [%],Activity [14] [%],Activity [15] [%],Activity [16] [%],Activity [17] [%],Activity [18] [%],Activity [19] [%],Activity [20] [%],SMILES,other results
66,68,71,74,75,83,84,84,85,86,88,88,89,90,92,94,95,96,96,1,CN(C)CCCC(=O)Nc1ccc2nccc(Nc3cccc(Br)c3)c2c1,Activity [21]: 5%; Activity [22]: 10%; Activity [23]: 13%; Activity [24]: 25%; Activity [25]: 26%; Activity [26]: 26%; Activity [27]: 32%; Activity [28]: 36%; Activity [29]: 37%; Activity [30]: 48%; Activity [31]: 50%; GI50 (cells): < 500 nM
32,64,105,66,87,70,65,89,79,86,93,95,96,96,89,85,96,93,106,3,CN(C)CCCC(=O)Nc1ccc2ncnc(Nc3cccc(Br)c3)c2c1,Activity [21]: 17%; Activity [22]: 10%; Activity [23]: 44%; Activity [24]: 49%; Activity [25]: 10%; Activity [26]: 53%; Activity [27]: 27%; Activity [28]: 37%; Activity [29]: 39%; Activity [30]: 18%; Activity [31]: 77%; GI50 (cells): < 500 nM
